Laboratory results published in the supplement of paper PMC10307832.

Assays:
Assay in all cases: relative viability (nuclei count vs DMSO), 5 days (fraction); higher = more cells survive
NCI-H2228 = tested on: NCI-H2228
Method in brief: (§1)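 Lung cancer cell lines in 1536-well plates were dosed by pin tool the day after seeding, either with one drug alone or with a fixed anchor-drug dose plus five library-drug doses (not always all listed) in √10 steps. After 5 days, cells were fixed and their nuclei stained in one step (final 0.05% Triton X-100, 1% formaldehyde, 1 ug/ml Hoechst), then counted on 4× images. Relative viability is the nuclei count in treated wells divided by that in vehicle wells. Values are medians of duplicate plates.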

NCI-H2170 = tested on: NCI-H2170
Method in brief: as §1

NCI-H1792 = tested on: NCI-H1792
Method in brief: as §1

NCI-H2009 = tested on: NCI-H2009
Method in brief: as §1

NCI-H1734 = tested on: NCI-H1734
Method in brief: as §1

EKVX = tested on: EKVX
Method in brief: as §1

NCI-H596 = tested on: NCI-H596
Method in brief: as §1

NCI-H2342 = tested on: NCI-H2342
Method in brief: as §1

NCI-H2405 = tested on: NCI-H2405
Method in brief: as §1

HARA = tested on: HARA
Method in brief: as §1

NCI-H647 = tested on: NCI-H647
Method in brief: as §1

NCI-H2087 = tested on: NCI-H2087
Method in brief: as §1

LOU-NH91 = tested on: LOU-NH91
Method in brief: as §1

NCI-H1395 = tested on: NCI-H1395
Method in brief: as §1

NCI-H1355 = tested on: NCI-H1355
Method in brief: as §1

BEN = tested on: BEN
Method in brief: as §1

SK-MES-1 = tested on: SK-MES-1
Method in brief: as §1

SK-LU-1 = tested on: SK-LU-1
Method in brief: as §1

LC-2-ad = tested on: LC-2-ad
Method in brief: as §1

NCI-H1437 = tested on: NCI-H1437
Method in brief: as §1

NCI-H661 = tested on: NCI-H661
Method in brief: as §1

HCC-44 = tested on: HCC-44
Method in brief: as §1

HCC-827 = tested on: HCC-827
Method in brief: as §1

HCC-366 = tested on: HCC-366
Method in brief: as §1

Q: What does the source list for `CC(C)Oc1cc(Nc2nc(N[C@@H](C)c3ccc(F)cn3)ncc2Cl)n[nH]1` [AZ23] + CC(=O)Nc1cccc(-n2c(=O)n(C3CC3)c(=O)c3c(Nc4ccc(I)cc4F)n(C)c(=O)c(C)c32)c1 [Trametinib] (partner 0.02 µM)?
A: relative viability (NCI-H2228; first compound 0.01 µM): 0.523; relative viability (NCI-H2228; first compound 0.03162 µM): 0.631; relative viability (NCI-H2228; first compound 0.3162 µM): 0.401; relative viability (NCI-H2170; first compound 0.01 µM): 1.14; relative viability (NCI-H2170; first compound 0.03162 µM): 0.953; relative viability (NCI-H2170; first compound 0.3162 µM): 0.994; relative viability (NCI-H1792; first compound 0.01 µM): 0.472; relative viability (NCI-H1792; first compound 0.03162 µM): 0.347; relative viability (NCI-H1792; first compound 0.3162 µM): 0.294; relative viability (NCI-H2009; first compound 0.01 µM): 0.257; relative viability (NCI-H2009; first compound 0.03162 µM): 0.243; relative viability (NCI-H2009; first compound 0.3162 µM): 0.284; relative viability (NCI-H1734; first compound 0.01 µM): 0.733; relative viability (NCI-H1734; first compound 0.03162 µM): 0.726; relative viability (NCI-H1734; first compound 0.3162 µM): 0.436; relative viability (EKVX; first compound 0.01 µM): 0.346; relative viability (EKVX; first compound 0.03162 µM): 0.351; relative viability (EKVX; first compound 0.3162 µM): 0.332; relative viability (NCI-H596; first compound 0.01 µM): 0.739; relative viability (NCI-H596; first compound 0.03162 µM): 0.779; relative viability (NCI-H596; first compound 0.3162 µM): 0.783; relative viability (NCI-H2342; first compound 0.01 µM): 0.752; relative viability (NCI-H2342; first compound 0.03162 µM): 0.828; relative viability (NCI-H2342; first compound 0.3162 µM): 0.72; relative viability (NCI-H2405; first compound 0.01 µM): 0.572; relative viability (NCI-H2405; first compound 0.03162 µM): 0.673; relative viability (NCI-H2405; first compound 0.3162 µM): 0.599; relative viability (HARA; first compound 0.01 µM): 0.666; relative viability (HARA; first compound 0.03162 µM): 0.886; relative viability (HARA; first compound 0.3162 µM): 0.399; relative viability (NCI-H647; first compound 0.01 µM): 0.61; relative viability (NCI-H647; first compound 0.03162 µM): 0.58; relative viability (NCI-H647; first compound 0.3162 µM): 0.509; relative viability (NCI-H2087; first compound 0.01 µM): 0.189; relative viability (NCI-H2087; first compound 0.03162 µM): 0.196; relative viability (NCI-H2087; first compound 0.3162 µM): 0.187; relative viability (LOU-NH91; first compound 0.01 µM): 0.784; relative viability (LOU-NH91; first compound 0.03162 µM): 0.823; relative viability (LOU-NH91; first compound 0.3162 µM): 0.784; relative viability (NCI-H1395; first compound 0.03162 µM): 1.06; relative viability (NCI-H1395; first compound 0.3162 µM): 1.06; relative viability (NCI-H1355; first compound 0.01 µM): 0.359; relative viability (NCI-H1355; first compound 0.03162 µM): 0.417; relative viability (NCI-H1355; first compound 0.3162 µM): 0.353; relative viability (BEN; first compound 0.01 µM): 0.909; relative viability (BEN; first compound 0.03162 µM): 1.14; relative viability (BEN; first compound 0.3162 µM): 1.09; relative viability (SK-MES-1; first compound 0.03162 µM): 0.578; relative viability (SK-MES-1; first compound 0.3162 µM): 0.59; relative viability (SK-LU-1; first compound 0.03162 µM): 0.509; relative viability (SK-LU-1; first compound 0.3162 µM): 0.474; relative viability (LC-2-ad; first compound 0.01 µM): 1.09; relative viability (LC-2-ad; first compound 0.03162 µM): 0.898; relative viability (LC-2-ad; first compound 0.3162 µM): 0.868; relative viability (NCI-H1437; first compound 0.01 µM): 0.503; relative viability (NCI-H1437; first compound 0.03162 µM): 0.512; relative viability (NCI-H1437; first compound 0.3162 µM): 0.651; relative viability (NCI-H661; first compound 0.01 µM): 0.611; relative viability (NCI-H661; first compound 0.03162 µM): 0.575; relative viability (NCI-H661; first compound 0.3162 µM): 0.547; relative viability (HCC-44; first compound 0.01 µM): 1.1; relative viability (HCC-44; first compound 0.03162 µM): 0.92; relative viability (HCC-44; first compound 0.3162 µM): 1.05; relative viability (HCC-827; first compound 0.01 µM): 0.456; relative viability (HCC-827; first compound 0.03162 µM): 0.563; relative viability (HCC-827; first compound 0.3162 µM): 0.557; relative viability (HCC-366; first compound 0.01 µM): 0.334; relative viability (HCC-366; first compound 0.03162 µM): 0.399; relative viability (HCC-366; first compound 0.3162 µM): 0.33
